Data on one molecule can be found in paper PMC8757611, “Synthesis, biological evaluation, and molecular docking of new series of antitumor and apoptosis inducers designed as VEGFR-2 inhibitors” (Journal of Enzyme Inhibition and Medicinal Chemistry, 2022).

In one assay the target is T1, VEGFR-2 kinase (Homo sapiens, UniProt P35968).
T1 construct: purchased
As to the kind of experiment: VEGFR-2 inhibition testing (ELISA kit). The assay is classed as biochemical. Here is the method: Enzyme linked immunosorbent assay (ELISA) technique was applied to human VEGFR-2 ELISA kit to calculate IC50 of all new derivatives against VEGFR-2 kinase. The antibody specific to the enzyme was planted on a 96 well microplate to which different micromolar concentrations of the positive control and the new compounds was added. […] Finally, stop solution (50 µL) was added and the reading was immediately determined at 450 nm. To get the standard curve, the concentrations used were presented on the X-axis and the corresponding absorbances were on the Y-axis.

For assay [1], the system named is HepG2. Briefly: In vitro antitumor MTT assay, HepG2. The note with it: Homo sapiens, HepG2; MTT, mean ± S.D. of three experiments. The assay is classed as cell-based, human. Here is the method:
(§1) The antitumor assay was performed against the human cancer cell lines: HepG2, PC3, and MCF-7. The chemicals used in this test were supplied by Sigma-Aldrich with high analytical grade. National Cancer Institute (Cairo, Egypt) was the supplier of the cell lines tested which originally obtained from American Type Culture Collection (ATCC). MTT protocol was applied to quantitatively measure the antiproliferative activity of the new derivatives. In this test, the colour change is attributed to that the yellow tetrazolium bromide (MTT) is converted to formazan derivative which has purple colour. This biochemical reaction occurs only in viable cells by mitochondrial succinate dehydrogenase. The tested cells were initially cultured in RPMI-1640 medium with foetal bovine serum (10%). To the incubated cell, streptomycin (100 µg/mL) and penicillin (100 units/mL) were added in a 5% CO2 incubator at 37 °C. Then seeding of the cells was performed in a 96-well plate under 5% CO2 and at density of 1.0 × 10^4 cells/well at 37 °C for 48 h. Various non-toxic concentrations of the tested candidates were added and the cells were then incubated for further 24 h to the cells treated with the new compounds, MTT solution (20 µL at 5 mg/mL) was added, followed by 4 h incubation. One hundred microlitres of Dimethyl sulfoxide (DMSO) were added into each well to dissolve the purple formazan formed which is colorimetrically absorbed at 570 nm using a plate reader (EXL 800, USA). Finally, the percentages of cell viability was obtained as (A570 of treated samples/A570 of untreated sample) × 100.

For assay [2], the system named is HepG2. As to the kind of experiment: Effect on apoptosis rate of HepG2 (Annexin V-FITC/PI). The class given is cell-based, human. Here is the method: Apoptosis ratio of HepG2 treated with 9.6 µg of compound 15d in comparison with untreated HepG2 cells was calculated according to the reported method using Annexin V fluorescein isothiocyanate (V-FITC)/PI kit[36].

For another assay, the system named is BAX. Briefly: Apoptotic marker level in HepG2, BAX. The settings on record: HepG2, at IC50, 24 h; control 40.62. The class given is cell-based, human. Here is the method: (§2) HepG2 cells were cultured and treated with compound 15d for 24 h. after that cells were collected and washed with PBS, then were collected and lysed by adding it to the extraction buffer containing protease inhibitors (1 ml per 1 × 10^6 cells.) then the lysate was diluted immediately before the assay. Caspase-3, BAX, Bcl-2, and p53 level was measured by using Quantikine-Human active kits (R&D Systems, Inc. Minneapolis, USA) according to the manufacturer protocols.

The next assay has as its system Caspase-3. Briefly: Apoptotic marker level in HepG2, Caspase-3. The assay is classed as cell-based, human. The settings on record: HepG2, at IC50, 24 h; control 49.6274. Here is the method: as §2
Assay [3] relates to human cancer cell lines HepG2, PC3, MCF-7. Briefly: In vitro antitumor MTT assay, panel of HepG2, PC3 and MCF-7. The class given is cell-based. The note with it: range over HepG2, PC3 and MCF-7, read-out: IC50 against human cancer cell lines. Here is the method: as §1
Another assay has as its target FGFR. As to the kind of experiment: Multi-kinase assay (HTRF), FGFR. The assay is classed as biochemical. Here is the method:
(§3) Different kinases and ATP were obtained from Sigma. The specified kinase and its substrate was incubated with compound for 5 min in buffer solution to start the enzymatic reaction; ATP was then added to the reaction mixture and was maintained for 30 min at room temperature.

In the next assay the test system is PC3. Briefly: In vitro antitumor MTT assay, PC3. The note with it: Homo sapiens, PC-3; MTT, mean ± S.D. of three experiments. The assay is classed as cell-based, human. Here is the method:
as §1

The target of another assay is T2, HER2 (Homo sapiens, UniProt P04626).
T2 construct: purchased Sigma
T2 sequence (P04626 23-1255): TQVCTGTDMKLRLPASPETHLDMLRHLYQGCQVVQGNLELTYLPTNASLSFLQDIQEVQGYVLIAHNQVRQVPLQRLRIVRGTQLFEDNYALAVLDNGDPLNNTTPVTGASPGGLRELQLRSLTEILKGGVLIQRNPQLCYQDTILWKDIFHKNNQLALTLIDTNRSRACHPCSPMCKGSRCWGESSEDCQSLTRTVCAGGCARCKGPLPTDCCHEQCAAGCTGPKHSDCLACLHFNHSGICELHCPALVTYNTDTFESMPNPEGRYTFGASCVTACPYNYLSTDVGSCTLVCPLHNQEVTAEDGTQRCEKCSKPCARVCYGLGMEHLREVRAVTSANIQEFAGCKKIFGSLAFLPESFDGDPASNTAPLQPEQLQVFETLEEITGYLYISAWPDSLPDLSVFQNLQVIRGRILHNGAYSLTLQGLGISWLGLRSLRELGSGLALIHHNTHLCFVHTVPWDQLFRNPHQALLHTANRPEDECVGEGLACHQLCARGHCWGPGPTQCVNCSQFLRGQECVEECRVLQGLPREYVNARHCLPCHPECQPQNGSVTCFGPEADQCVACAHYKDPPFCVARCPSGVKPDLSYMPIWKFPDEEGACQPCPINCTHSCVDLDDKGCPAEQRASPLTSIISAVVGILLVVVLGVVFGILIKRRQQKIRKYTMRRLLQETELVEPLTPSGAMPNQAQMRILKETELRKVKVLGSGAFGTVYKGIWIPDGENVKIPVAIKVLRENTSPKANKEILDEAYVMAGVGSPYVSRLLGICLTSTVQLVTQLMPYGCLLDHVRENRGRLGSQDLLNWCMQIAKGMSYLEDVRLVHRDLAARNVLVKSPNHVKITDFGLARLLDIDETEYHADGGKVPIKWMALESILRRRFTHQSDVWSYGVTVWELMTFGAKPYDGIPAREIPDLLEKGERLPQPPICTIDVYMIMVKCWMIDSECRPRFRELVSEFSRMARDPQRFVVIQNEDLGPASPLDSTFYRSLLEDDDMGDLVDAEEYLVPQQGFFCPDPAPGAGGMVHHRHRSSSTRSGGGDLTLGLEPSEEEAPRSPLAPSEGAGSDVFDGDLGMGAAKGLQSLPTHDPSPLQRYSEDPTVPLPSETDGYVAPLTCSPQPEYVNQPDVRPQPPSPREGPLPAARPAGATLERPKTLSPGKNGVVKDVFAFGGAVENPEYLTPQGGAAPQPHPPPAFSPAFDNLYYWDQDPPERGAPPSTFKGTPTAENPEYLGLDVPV
As to the kind of experiment: Multi-kinase assay (HTRF), HER2. The class given is biochemical. Here is the method: as §3

Another assay deals with P53. As to the kind of experiment: Apoptotic marker level in HepG2, p53. The class given is cell-based, human. The settings on record: HepG2, at IC50, 24 h; control 42.84. Here is the method: as §2
Another assay deals with MCF-7. Briefly: In vitro antitumor MTT assay, MCF-7. The class given is cell-based, human. The settings on record: Homo sapiens, MCF7; MTT, mean ± S.D. of three experiments. Here is the method:
as §1

For assay [4], the system named is HepG2. As to the kind of experiment: Effect on cell cycle of HepG2 (PI flow cytometry). The class given is cell-based, human. The settings on record: at its IC50. Here is the method: The protocol reported by Wang et al.[35] was followed to determine the effect of 15d on cell cycle of HepG2. The cancer cells (2 × 10^5 cells) were seeded and incubated in each of six-well plates for 24 h. The cells were further incubated at 37 °C and 5% CO2 after addition of foetal bovine serum (FBS, 10%). The medium was replaced by DMSO solution (1% v/v) in which 9.6 µg of compound 15d was dissolved. Well plates were then incubated for 48 h and then rinsed with cold phosphate-buffered saline (PBS), fixed with ethanol (70%) and washed again with PBS. DNA fluorochrome propidium iodide (PI) was used to stain the cells which were then kept for 15 min at 37 °C. FACS Calibre flow cytometer was used to analyse the samples.

In the next assay the test system is WI-38. As to the kind of experiment: Cytotoxicity against normal lung fibroblasts (MTT). The class given is cell-based. The note with it: normal human lung fibroblasts. Here is the method:
as §1
Of note, the cytotoxicity against normal human lung fibroblasts cell line (WI-38) were examined for the nine selected compounds.

The next assay deals with Bcl-2. As to the kind of experiment: Apoptotic marker level in HepG2, Bcl-2. The class given is cell-based, human. The note with it: HepG2, at IC50, 24 h; control 5.761. Here is the method: as §2

T1 sequence (P35968 20-1356): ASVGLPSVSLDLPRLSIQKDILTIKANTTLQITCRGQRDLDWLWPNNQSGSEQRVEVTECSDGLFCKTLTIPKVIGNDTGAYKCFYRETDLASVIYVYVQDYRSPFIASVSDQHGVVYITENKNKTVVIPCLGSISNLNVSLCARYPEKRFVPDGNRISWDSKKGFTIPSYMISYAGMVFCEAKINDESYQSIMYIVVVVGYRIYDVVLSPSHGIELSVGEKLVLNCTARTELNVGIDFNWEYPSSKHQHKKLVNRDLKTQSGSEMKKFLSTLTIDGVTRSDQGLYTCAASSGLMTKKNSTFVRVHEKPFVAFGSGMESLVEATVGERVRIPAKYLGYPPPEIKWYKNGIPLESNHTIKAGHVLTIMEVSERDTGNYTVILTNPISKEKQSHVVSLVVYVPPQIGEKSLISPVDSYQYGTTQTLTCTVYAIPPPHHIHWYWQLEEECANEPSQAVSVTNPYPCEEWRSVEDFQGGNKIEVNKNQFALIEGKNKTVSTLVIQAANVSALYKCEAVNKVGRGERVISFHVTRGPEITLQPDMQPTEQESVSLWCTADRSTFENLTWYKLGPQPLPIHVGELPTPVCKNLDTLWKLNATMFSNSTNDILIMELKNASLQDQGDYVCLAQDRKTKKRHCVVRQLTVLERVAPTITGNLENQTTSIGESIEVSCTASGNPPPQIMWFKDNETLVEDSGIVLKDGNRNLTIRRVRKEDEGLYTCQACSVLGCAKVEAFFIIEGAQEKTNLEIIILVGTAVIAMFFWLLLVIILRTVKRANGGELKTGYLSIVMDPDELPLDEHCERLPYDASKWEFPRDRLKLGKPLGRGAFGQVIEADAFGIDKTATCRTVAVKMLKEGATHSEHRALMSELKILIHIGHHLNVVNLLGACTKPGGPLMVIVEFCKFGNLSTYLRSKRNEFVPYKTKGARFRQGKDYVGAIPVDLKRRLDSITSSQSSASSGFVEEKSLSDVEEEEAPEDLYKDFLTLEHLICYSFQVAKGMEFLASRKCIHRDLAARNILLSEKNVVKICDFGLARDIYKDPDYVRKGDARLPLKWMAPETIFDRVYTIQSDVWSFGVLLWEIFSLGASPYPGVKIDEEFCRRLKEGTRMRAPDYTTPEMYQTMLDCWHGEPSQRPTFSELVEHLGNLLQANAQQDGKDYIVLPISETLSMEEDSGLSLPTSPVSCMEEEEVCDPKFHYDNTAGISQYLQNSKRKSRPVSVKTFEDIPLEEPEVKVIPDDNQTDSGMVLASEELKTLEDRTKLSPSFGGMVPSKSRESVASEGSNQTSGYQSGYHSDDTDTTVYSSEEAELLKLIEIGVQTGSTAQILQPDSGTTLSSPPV

For `O=C(Nc1ccc(Oc2nc(Cl)nc3ccccc23)cc1)c1cccnc1` [Compound 15d, N-(4-((2-Chloroquinazolin-4-yl)oxy)phenyl)nicotinamide], the IC50 against VEGFR-2 kinase is 0.06 ± 0.00145 µM; in the assay with HepG2 [1] it was 24.1 ± 2.12 µM; in assay [3], 17.4 to 47.1 µM; against FGFR it was 0.381 ± 0.0018 µM; with PC3, 40.9 ± 3.46 µM; at HER2, 0.253 ± 0.0016 µM. The IC50 was determined as 33.4 ± 2.92 µM with MCF-7 and 221 ± 2.55 µM in the assay on WI-38. For the same molecule, in the assay on HepG2 [2] (HepG2, at IC50, control 0.33), the “% Apoptosis Late” value is reported as 7.13%. In the assay on HepG2 [2] (HepG2, at IC50, control 0.87), the “% Apoptosis Early” value was 5.33%. In addition, in the assay on HepG2 [2] (HepG2, at IC50, control 1.17), the “% Necrosis” value amounted to 2.35%. Moreover, the “Total (apoptosis and necrosis)” value with HepG2 [2] (HepG2, at IC50, control 2.37) came to 14.81%. For the same molecule, the “fold increase in apoptosis of HepG2” value in the assay with HepG2 [2] (at IC50, versus control) worked out at 10 folds. Further, the “apoptosis rate of HepG2” value in the assay with HepG2 [2] (at IC50, control […]) was 12.46%. Moreover, the BAX level in the assay with BAX was 395.04 pg/mL. The molecule also yielded a Casp3 level in the assay on Caspase-3 of 561.427 pg/mL. The molecule further yielded a P53 level with P53 of 415.027 pg/mL. The “cell cycle phases in which growth of HepG2 is stopped” value in the assay with HepG2 [4] is “both G2/M and pre G1 phases”. The molecule further gave a Bcl-2 level in the assay on Bcl-2 of 1.385 pg/mL.
